These results are taken from patent US6057371A, “Sigma receptor ligands and the use thereof” (Virginia Commonwealth University, priority 1992, dated 2000).

What is called Ki is the dissociation constant of the complex between target and ligand, obtained from inhibition or displacement.

Like-named read-outs stand apart in the source and are kept apart here.

The target in one test is PCP receptor. Nature of the test: PCP receptor binding, ^3 H-MK-801. The following applies: Table 4. Set-up: species or system rat. On the procedure: PCP receptor binding assays against ^3 H-MK-801 were conducted as described by Keana et al., Proc. Natl. Acad. Sci (USA) 86: 5631-5635 (1989); Keana et al., Life Sciences 43: 965-973 (1988). For (+) ^3 H-MK-801 binding, 1 nM of radioligand was incubated with about 100 ug of thawed rat brain membrane protein for 4 hr at room temperature. The assays were carried out in 5 mM Tris/acetate and were stopped by rapid filtration through Whatman GF/B or Schleicher & Schuell no. 32 glass fiber filters (presoaked in 0.05% polyethylenamine).

Another test addresses T1, 5-HT1A receptor (Rattus norvegicus, UniProt P19327).
T1 sequence (P19327 1-422): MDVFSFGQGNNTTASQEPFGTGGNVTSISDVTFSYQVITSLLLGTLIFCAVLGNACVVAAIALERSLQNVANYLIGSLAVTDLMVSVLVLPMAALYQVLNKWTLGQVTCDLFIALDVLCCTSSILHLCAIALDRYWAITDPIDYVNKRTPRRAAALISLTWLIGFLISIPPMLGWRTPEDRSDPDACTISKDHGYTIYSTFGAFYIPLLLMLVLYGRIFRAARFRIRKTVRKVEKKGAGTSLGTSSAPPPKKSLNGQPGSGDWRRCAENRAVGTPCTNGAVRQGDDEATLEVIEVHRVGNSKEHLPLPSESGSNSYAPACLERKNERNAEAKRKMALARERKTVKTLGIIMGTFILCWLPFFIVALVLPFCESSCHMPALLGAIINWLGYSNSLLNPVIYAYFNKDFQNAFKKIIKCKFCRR
In words: biochemical. Format: binding. Set-up: 47: 529-540 (1986); from tissue; host or cells: brain tissue, inferred from the cited method (rat frontal cortex). On the procedure:
Further sigma receptor binding assays against [^3 H]DTG and 5HT-1A binding assays were conducted according to the procedure outlined in the previous examples.

In a further test the target is T2, sigma-1 binding site (Cavia porcellus, UniProt Q60492).
T2 construct: Guinea pig whole membrane preparations (P2 microsomal fraction); from tissue; host or cells: guinea pig membranes (P2 microsomal fraction), as described by Weber et al; brain inferred from the sister test b489
T2 sequence (Q60492 whole entry): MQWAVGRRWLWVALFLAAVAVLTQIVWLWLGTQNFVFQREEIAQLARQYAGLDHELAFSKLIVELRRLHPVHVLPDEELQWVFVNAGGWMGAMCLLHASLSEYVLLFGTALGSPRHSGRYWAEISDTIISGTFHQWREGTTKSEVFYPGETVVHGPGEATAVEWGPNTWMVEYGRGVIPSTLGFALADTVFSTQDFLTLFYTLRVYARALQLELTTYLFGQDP
In words: biochemical. Set-up: species or system guinea pig. The following applies: for S1/S2 Ratio: sigma-1/sigma-2; for IC50 ratio of sigma-1/sigma-2 (sigma-1 selective compounds): less than about 0.1, see Table 10. On the procedure: [^3 H]DTG was purchased from DuPont/NEN.
The radioactivity on the filters was determined by scintillation spectrometry at an efficiency of about 50% using Cytoscint (ICN) scintillation fluid.

The target in a further test is T3, sigma-2 binding site (Cavia porcellus, UniProt H0V073).
T3 construct: Guinea pig whole membrane preparations (P2 microsomal fraction); from tissue; host or cells: guinea pig membranes (P2 microsomal fraction), as described by Weber et al; brain inferred from the sister test b489
T3 sequence (H0V073 1-176): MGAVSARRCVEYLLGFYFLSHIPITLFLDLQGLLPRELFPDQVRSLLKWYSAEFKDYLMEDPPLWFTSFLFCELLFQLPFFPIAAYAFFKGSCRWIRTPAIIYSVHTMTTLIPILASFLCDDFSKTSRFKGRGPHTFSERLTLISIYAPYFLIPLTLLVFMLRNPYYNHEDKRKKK
In words: biochemical. Set-up: species or system guinea pig. As to conditions: for Ki: Table 10, read-out: SIGMA-2 KI vs. 3H-DTG + PENTAZOCINE MEAN.

The next test deals with sigma receptor. Nature of the test: Sigma receptor binding, [^3 H]DTG, brain membranes (both sigma-1 and sigma-2 sites). The following applies: for IC50: Table 6, [^3 H]DTG. On the set-up: species or system guinea pig.
The mark [1] stands for this setting: Table 10, read-out: SIGMA-1 KI vs. 3H-PENTAZOCINE MEAN.
Setting [2] is: Table 6, read-out: 5HT-1A (nM) MEAN.

Protocol for sigma-2 binding site: For the standard equilibrium assay, the mixtures were incubated for 30 min. at room temperature, then filtered and the radioactivity determined as described above.

For `CN[C@H](C)Cc1ccccc1` [Compound 3], the IC50 on PCP receptor is > 10 µM; at 5-HT1A receptor (Table 5, read-out: 5-HT1A IC50), 1780 nM.

Regarding `CCN[C@H](C)Cc1ccccc1` [Compound 4], the IC50 at PCP receptor was > 10 µM; on 5-HT1A receptor (Table 5, read-out: 5-HT1A IC50), 4050 nM. Moreover, at 5-HT1A receptor (Table 5), the “Ratio 5-HT1A /σ” value is 5.9.

`CCCN[C@H](C)Cc1ccccc1` [Compound 5]: the IC50 at PCP receptor was > 10 µM; on 5-HT1A receptor (Table 5, read-out: 5-HT1A IC50) it was 1500 nM. The “Ratio 5-HT1A /σ” value at 5-HT1A receptor (Table 5) is recorded as “.88”.

With `C[C@H](Cc1ccccc1)NCc1ccccc1` [Compound 6], the IC50 was > 10 µM at PCP receptor and 3780 nM at 5-HT1A receptor (Table 5, read-out: 5-HT1A IC50). The “Ratio 5-HT1A /σ” value at 5-HT1A receptor (Table 5) came to 31.

As for `C[C@H](Cc1ccccc1)NCCC(=O)c1ccccc1` [Compound 9], the IC50 is > 10 µM on PCP receptor and 122 nM at 5-HT1A receptor (Table 5, read-out: 5-HT1A IC50). Besides, at 5-HT1A receptor (Table 5), the “Ratio 5-HT1A /σ” value was 2.

Consider `CC(NCCCc1ccccc1)C(=O)c1ccccc1` (stereo not drawn) [Compound 13], for which the IC50 at PCP receptor was > 10 µM; at 5-HT1A receptor (Table 5, read-out: 5-HT1A IC50), 288 nM. On 5-HT1A receptor (Table 5), the “Ratio 5-HT1A /σ” value was found to be 2.

In the case of `c1ccc(CCCNC2Cc3ccccc3C2)cc1` [Compound 14], the IC50 on PCP receptor is > 10 µM; at 5-HT1A receptor (Table 5, read-out: 5-HT1A IC50) it was 154 nM. Also, the “Ratio 5-HT1A /σ” value at 5-HT1A receptor (Table 5) is given as 5.4.

`CC(Cc1ccccc1)NCC1CC1` (stereo not drawn) [Compound 24]: the IC50 is > 10 µM on PCP receptor and 956 nM at 5-HT1A receptor (Table 5, read-out: 5-HT1A IC50). Further, the “Ratio 5-HT1A /σ” value at 5-HT1A receptor (Table 5) amounted to 1.4.

As for `C[C@H](Cc1ccccc1)NCC#Cc1ccccc1` [Compound 25], the IC50 on PCP receptor was > 10 µM; at 5-HT1A receptor (Table 5, read-out: 5-HT1A IC50), 753 nM. Also, at 5-HT1A receptor (Table 5), the “Ratio 5-HT1A /σ” value is 7.3.

`C[C@H](N[C@@H](C)Cc1ccccc1)c1ccccc1` [Compound 26]: the IC50 on PCP receptor was > 10 µM; on 5-HT1A receptor (Table 5, read-out: 5-HT1A IC50) it was 10000 nM. Further, the “Ratio 5-HT1A /σ” value on 5-HT1A receptor (Table 5) turned out to be 3.5.

As for `C[C@@H](Cc1ccccc1)NCCc1ccccc1` [Compound 27], the IC50 at PCP receptor was > 10 µM; at 5-HT1A receptor (Table 5, read-out: 5-HT1A IC50), 6510 nM. Further, the “Ratio 5-HT1A /σ” value at 5-HT1A receptor (Table 5) came out at 200.

Take `C[C@@H](N)Cc1ccccc1` [Compound 28]: at PCP receptor, the IC50 is > 10 µM.

As for `C[C@@H](N)Cc1ccc(I)cc1` [Compound 29], the IC50 at PCP receptor was > 10 µM; on 5-HT1A receptor (Table 5, read-out: 5-HT1A IC50) it was 15500 nM. On 5-HT1A receptor (Table 5), the “Ratio 5-HT1A /σ” value was found to be 3.1.

In the case of `C[C@@H](N)Cc1ccc([N+](=O)[O-])cc1` [Compound 30], the IC50 at PCP receptor is > 10 µM; on 5-HT1A receptor (Table 5, read-out: 5-HT1A IC50), 55000 nM. Moreover, on 5-HT1A receptor (Table 5), the “Ratio 5-HT1A /σ” value is recorded as 2.6.

For the compound `c1ccc(CCCCCNCCCc2ccccc2)cc1` [Compound 111, N-(5-phenylpentyl)-3-phenylpropylamine], the Ki was 0.28 nM on sigma-1 binding site (setting [1]); 9.84 nM at sigma-2 binding site; 1.8 nM on sigma receptor (Table 7, Phenyl-(CH2)x -NH--(CH2)y -Phenyl, read-out: Ki). Moreover, on sigma-1 binding site (Table 10), the “S1/S2 Ratio” value amounted to 0.029. For the same compound, the IC50 on sigma-1 binding site (Table 15, read-out: IC50 (nM) at sigma-1) turned out to be 0.28 nM; on 5-HT1A receptor (setting [2]), 92.2 nM; at sigma-2 binding site (Table 18, read-out: IC50 (nM) at sigma-2) it was 9.8 nM; on sigma receptor, 2.73 nM. For the same compound, the “IC50 ratio of sigma-1/sigma-2 (sigma-1 selective compounds)” value on sigma-1 binding site is “less than 0.1”.

Consider `CCCN(C)CCCCCc1ccccc1` [Compound 112, N-methyl-N-propyl-5-phenylpentylamine], for which the IC50 on sigma-1 binding site (Example 8, read-out: sigma-1 IC50, text) worked out at 0.29 nM; at 5-HT1A receptor (setting [2]), 8240 nM; at sigma-2 binding site (Example 9, read-out: sigma-2 IC50), 40 nM; at sigma receptor it was 2.65 nM. In addition, the Ki at sigma-1 binding site (read-out: SIGMA-1 KI vs. 3H-P[…]) came out at 0.29 nM; on sigma-2 binding site it was 40.5 nM; at sigma receptor (running text, Examples 5 and 6, listed as N-methyl-N-propyl-5-phenylpentylamine, read-out: sigma receptor Ki), 2.2 nM.

On to `C[C@@H](Cc1ccccc1)N(C)CCCc1ccccc1` [Compound 113, N-Methyl-N-(3-phenylpropyl)-1-phenylisopropylamine], for which the Ki at sigma-1 binding site (setting [1]) is 0.51 nM; at sigma-2 binding site, 4.87 nM. For the same compound, on sigma-1 binding site (Table 10), the “S1/S2 Ratio” value is 0.105. Besides, the “IC50 ratio of sigma-1/sigma-2 (sigma-1 selective compounds)” value on sigma-1 binding site is on record as “less than 0.1”. The results for the IC50 at 5-HT1A receptor (setting [2]) and on sigma receptor were 2150 nM and 2.22 nM, respectively.

For `c1ccc(CCCCCN2CCC(Cc3ccccc3)CC2)cc1` [Compound 117, N-(5-phenylpentyl)-4-benzylpiperidine], the Ki at sigma-1 binding site (setting [1]) came out at 0.58 nM; at sigma-2 binding site, 2.78 nM. The “S1/S2 Ratio” value on sigma-1 binding site (Table 10) stood at 0.210. Also, the IC50 at 5-HT1A receptor (setting [2]) is 781 nM; on sigma receptor it was 2.11 nM.
